How the values were obtained:
bedstraw = test: Test B preemergence/postemergence greenhouse plant response rating 0 to 10; format: in vivo, Galium aparine; settings: for Plant response rating, Bedstraw: 0 to 10 scale
In short: (§1)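 Planted seeds are treated preemergence with compound dissolved in a non-phytotoxic solvent, while postemergence applications go onto plants of two to eighteen cm. Plants stay in the greenhouse twelve to sixteen days and are then rated visually relative to controls.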

blackgrass [1] = test: as above; format: in vivo, Alopecurus myosuroides; settings: for Plant response rating, Blackgrass: 0 to 10 scale
In short: as §1

cocklebur = test: as above; format: in vivo, Xanthium pensylvanicum; settings: for Plant response rating, Cocklebur: 0 to 10 scale
In short: as §1

morningglory = test: as above; format: in vivo, Ipomoea hederacea; settings: 0 to 10 scale
In short: as §1

sugar beet = test: as above; format: in vivo, Beta vulgaris; settings: 0 to 10 scale
In short: as §1

wild oat = test: as above; format: in vivo, Avena fatua; settings: 0 to 10 scale
In short: as §1

blackgrass [2] = test: Test C preemergence/postemergence greenhouse plant response rating 0 to 100; format: in vivo, Alopecurus myosuroides; settings: POSTEMERGENCE; for Plant response rating, Blackgrass: 0 to 100 scale
In short: (§2)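 Compounds in non-phytotoxic solvent applied preemergence to sandy loam one day after planting, postemergence at the 1–4 leaf stage, or to ~2.5 cm floodwater over silt loam.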

cotton = test: as above; format: in vivo, Gossypium hirsutum; settings: POSTEMERGENCE; for Plant response rating, Cotton: 0 to 100 scale
In short: as §2

pigweed = test: as above; format: in vivo, Amaranthusretroflexus; settings: POSTEMERGENCE; for Plant response rating Pigweed: 0 to 100 scale
In short: as §2

ryegrass = test: as above; format: in vivo, Lolium multiflorum; settings: POSTEMERGENCE; for Plant response rating Ryegrass: 0 to 100 scale
In short: as §2

wheat = test: as above; format: in vivo, Triticum aestivum; settings: POSTEMERGENCE; for Plant response rating, Wheat: 0 to 100 scale
In short: as §2

barnyardgrass = test: Test C flood test plant response rating 0 to 100; format: in vivo, Echinochloa crus-galli; settings: for Plant response rating (0 to 100), Barnyardgrass: under POSTEMERGENCE head (flood test species); for Plant response rating, Barnyardgrass: flood test species listed under POSTEMERGENCE, 0 to 100 scale
In short: as §2

sandbur = test: Test G preemergence/postemergence greenhouse plant response rating 0 to 100; format: in vivo, Cenchrus echinatus; settings: 0 to 100 scale
Text: Seeds, rhizomes, or plant parts of alfalfa (Medicago ativa), annual bluegrass (Poa annua), bermudagrass (Cynodon dactylon), broadleaf signalgrass (Brachiaria plantaginea), common purslane (Portulaca oleracea), common ragweed (Ambrosia elatior), […] (Paspalum dilatatum), goosegrass (Eleusine indica), guineagrass (Panicum maximum), […] exaltata), johnsongrass (Sorghum halepense), large crabgrass (Digitaria sanguinalis), peanut (Arachis hypoagaea), pitted morningglory (Ipomoea lacunosa), purple nutsedge (Cyperus rotundus), sandbur (Cenchrus echinatus), smooth crabgrass (Digitaria ischaemum) and yellow nutsedge (Cyperus esculentus) were planted into greenhouse pots containing greenhouse planting medium. Each pot contained only one plant species. The test compound was dissolved in a non-phytotoxic solvent and applied preemergence and/or postemergence to the plants. Preemergence applications were made within one day of planting the seeds or plant parts. Postemergence applications were applied when the plants were in the two to four leaf stage (three to twenty cm). Test chemicals were dissolved in a non-phytotoxic solvent and applied preemergence and postemergence to the plants. Untreated control plants and treated plants were placed in the greenhouse and visually evaluated for injury at 13 to 21 days after herbicide application. […] A dash (-) response indicates no test result.

Q: What does the source list for `COC(=O)C(C)Oc1cc(-c2nn3c(c2Cl)CCCC3)c(F)cc1Cl` (stereo not drawn) [Compound 28]?
A: Plant response rating (0 to 10 scale), Bedstraw (bedstraw; POSTEMERGENCE, Rate 50 g/ha): 9; Plant response rating, Bedstraw (bedstraw; POSTEMERGENCE, Rate 200 g/ha): 10; Plant response rating, Bedstraw (bedstraw; PREEMERGENCE, Rate 50 g/ha): 8; Plant response rating, Bedstraw (bedstraw; Rate 200 g/ha, PREEMERGENCE): 10; Plant response rating (0 to 10 scale), Blackgrass (blackgrass [1]; POSTEMERGENCE, Rate 50 g/ha): 4; Plant response rating, Blackgrass (blackgrass [1]; POSTEMERGENCE, Rate 200 g/ha): 6; Plant response rating, Blackgrass (blackgrass [1]; PREEMERGENCE, Rate 50 g/ha): 2; Plant response rating, Blackgrass (blackgrass [1]; Rate 200 g/ha, PREEMERGENCE): 4; Plant response rating (0 to 10 scale), Cocklebur (cocklebur; POSTEMERGENCE, Rate 50 g/ha): 9; Plant response rating, Cocklebur (cocklebur; POSTEMERGENCE, Rate 200 g/ha): 10; Plant response rating, Cocklebur (cocklebur; PREEMERGENCE, Rate 50 g/ha): 0; Plant response rating, Cocklebur (cocklebur; Rate 200 g/ha, PREEMERGENCE): 1; Plant response rating, Morningglory (morningglory; POSTEMERGENCE, Rate 50 g/ha): 8; Plant response rating, Morningglory (morningglory; POSTEMERGENCE, Rate 200 g/ha): 10; Plant response rating, Morningglory (morningglory; PREEMERGENCE, Rate 50 g/ha): 3; Plant response rating, Morningglory (morningglory; Rate 200 g/ha, PREEMERGENCE): 3; Plant response rating, Sugar beet (sugar beet; POSTEMERGENCE, Rate 50 g/ha): 10; Plant response rating, Sugar beet (sugar beet; POSTEMERGENCE, Rate 200 g/ha): 10; Plant response rating, Sugar beet (sugar beet; PREEMERGENCE, Rate 50 g/ha): 10; Plant response rating, Sugar beet (sugar beet; Rate 200 g/ha, PREEMERGENCE): 10; Plant response rating, Wild oat (wild oat; POSTEMERGENCE, Rate 50 g/ha): 5; Plant response rating, Wild oat (wild oat; POSTEMERGENCE, Rate 200 g/ha): 6; Plant response rating, Wild oat (wild oat; Rate 200 g/ha, PREEMERGENCE): 2; Plant response rating, Blackgrass (blackgrass [2]; 62 g/ha): 50; Plant response rating, Blackgrass (blackgrass [2]; 250 g/ha): 70; Plant response rating (0 to 100), Blackgrass (blackgrass [2]; Rate 4 g/ha): 20; Plant response rating (0 to 100), Blackgrass (blackgrass [2]; Rate 16 g/ha): 30; Plant response rating, Cotton (cotton; 62 g/ha): 100; Plant response rating, Cotton (cotton; 250 g/ha): 100; Plant response rating (0 to 100), Cotton (cotton; Rate 4 g/ha): 100; Plant response rating (0 to 100), Cotton (cotton; Rate 16 g/ha): 100; Plant response rating Pigweed (pigweed; 62 g/ha): 100; Plant response rating Pigweed (pigweed; 250 g/ha): 100; Plant response rating (0 to 100), Pigweed (pigweed; Rate 4 g/ha): 100; Plant response rating (0 to 100), Pigweed (pigweed; Rate 16 g/ha): 100; Plant response rating Ryegrass (ryegrass; 62 g/ha): 60; Plant response rating Ryegrass (ryegrass; 250 g/ha): 70; Plant response rating (0 to 100), Ryegrass (ryegrass; Rate 4 g/ha): 20; Plant response rating (0 to 100), Ryegrass (ryegrass; Rate 16 g/ha): 40; Plant response rating, Wheat (wheat; 62 g/ha): 70; Plant response rating, Wheat (wheat; 250 g/ha): 100; Plant response rating (0 to 100), Wheat (wheat; Rate 4 g/ha): 40; Plant response rating (0 to 100), Wheat (wheat; Rate 16 g/ha): 60; Plant response rating (0 to 100), Barnyardgrass (barnyardgrass; Rate 4 g/ha): 35; Plant response rating (0 to 100), Barnyardgrass (barnyardgrass; Rate 16 g/ha): 50; Plant response rating, Barnyardgrass (barnyardgrass; 62 g/ha): 95; Plant response rating, Barnyardgrass (barnyardgrass; 250 g/ha): 100; Plant response rating, S. Sandbur (sandbur; POSTEMERGENCE, Rate 125 g/ha): 0; Plant response rating, S. Sandbur (sandbur; POSTEMERGENCE, Rate 250 g/ha): 0; Plant response rating, S. Sandbur (sandbur; PREEMERGENCE, Rate 125 g/ha): 0; Plant response rating, S. Sandbur (sandbur; PREEMERGENCE, Rate 250 g/ha): 0
